Strand notation (5' to 3'): a small letter for the sugar, then the base; units joined by * are phosphorothioate-linked, units joined directly phosphodiester-linked; [ ] holds rarer units or linkages, { } end groups; capitals alone tell only the bases. k = constrained ethyl (cEt); [5mC] = 5-methylcytosine; d = 2'-deoxy (DNA)
test system: human SMAD7 mRNA; assay: Antisense inhibition of human SMAD7 mRNA expression in Hep3B cells by 3-10-3 cEt gapmers, 10,000 nM, electroporation (Example 2); type: cell-based; details: Hep3B cells, electroporation with 10,000 nM antisense oligonucleotide, approximately 24 hours, RTS5062, percent inhibition of SMAD7 mRNA relative to untreated control cells
How it was run: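 Percent inhibition of SMAD7 mRNA, relative to untreated cells, after ~24 h exposure of electroporated Hep3B cells to 10,000 nM cEt gapmer; levels by qRT-PCR, corrected for total RNA.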

Question: For “799524 (antisense kA*kT*k[5mC]*dA*dA*dG*dG*dG*d[5mC]*dA*dG*dA*dA*kG*kG*k[5mC]) [compound 799524]”, which “% Inhibition” value is on record?
Answer: The value was 23%.

Question: With “799525 (antisense kA*kG*kG*dT*dT*dT*dG*dG*dG*dT*dT*dG*dG*kA*k[5mC]*kT) [compound 799525]” as the substance, how does the “% Inhibition” value read?
Answer: The value was 8%.

Question: “799526 (kA*kA*kG*dG*dA*dG*dG*dT*dT*dT*dG*dG*dG*kT*kT*kG; antisense) [compound 799526]” was tested. Which “% Inhibition” value did it give?
Answer: The value was 12%.

Question: For “799527 (kG*kT*k[5mC]*dA*dA*dA*dG*dG*dA*dG*dG*dT*dT*kT*kG*kG; antisense) [compound 799527]”, which “% Inhibition” value is on record?
Answer: The value was 4%.

Question: For “799528 (k[5mC]*kG*kG*dA*dT*dA*d[5mC]*d[5mC]*dA*dG*dG*dT*dG*kG*kT*kT; antisense) [compound 799528]”, which “% Inhibition” value is on record?
Answer: The value was 17%.

Question: Which “% Inhibition” value does the source give for “799529 (kG*kA*kA*dT*dT*dT*d[5mC]*dT*d[5mC]*dT*dT*dG*d[5mC]*kA*kT*kT; antisense) [compound 799529]” here?
Answer: The value was 27%.

Question: With “799530 (kG*k[5mC]*kT*d[5mC]*dA*dA*dT*dG*dA*dG*dA*d[5mC]*dT*kG*kG*k[5mC]; antisense) [compound 799530]” as the substance, how does the “% Inhibition” value read?
Answer: Its value is 34%.

Question: For “799531 (k[5mC]*kT*kT*dT*dA*dG*d[5mC]*dA*dA*dT*dT*dT*d[5mC]*kA*kA*kA; antisense) [compound 799531]”, which “% Inhibition” value is on record?
Answer: The value was 32%.

Question: With “799532 (kG*k[5mC]*kA*dG*dA*dA*dG*dG*d[5mC]*d[5mC]*dA*d[5mC]*d[5mC]*k[5mC]*k[5mC]*k[5mC]; antisense) [compound 799532]” as the substance, how does the “% Inhibition” value read?
Answer: Its value is 21%.

Question: “799533 (kG*kA*kA*dT*dG*dA*dA*dG*dT*d[5mC]*d[5mC]*dA*dG*kA*k[5mC]*k[5mC]; antisense) [compound 799533]” was tested. Which “% Inhibition” value did it give?
Answer: The value was 50%.

Question: How did the “% Inhibition” value turn out when “799545 (kT*k[5mC]*k[5mC]*d[5mC]*dA*d[5mC]*d[5mC]*d[5mC]*dT*dG*dG*dT*dG*k[5mC]*kT*k[5mC]; antisense) [compound 799545]” was run?
Answer: Its value is 9%.

Question: With “799546 (kT*kA*k[5mC]*dT*dG*dT*dT*dG*dG*d[5mC]*dA*dG*dT*kG*k[5mC]*kT; antisense) [compound 799546]” as the substance, how does the “% Inhibition” value read?
Answer: Its value is 48%.

Question: Which “% Inhibition” value does the source give for “799547 (kT*k[5mC]*k[5mC]*dT*dA*d[5mC]*dT*dG*dT*dT*dG*dG*d[5mC]*kA*kG*kT; antisense) [compound 799547]” here?
Answer: Its value is 50%.

Question: How did the “% Inhibition” value turn out when “799548 (k[5mC]*kT*k[5mC]*d[5mC]*dT*dA*d[5mC]*dT*dG*dT*dT*dG*dG*k[5mC]*kA*kG; antisense) [compound 799548]” was run?
Answer: Its value is 39%.

Question: How did the “% Inhibition” value turn out when “799549 (kG*k[5mC]*kT*d[5mC]*d[5mC]*dT*dA*d[5mC]*dT*dG*dT*dT*dG*kG*k[5mC]*kA; antisense) [compound 799549]” was run?
Answer: Its value is 53%.

Question: Which “% Inhibition” value does the source give for “799550 (kA*kG*k[5mC]*dT*d[5mC]*d[5mC]*dT*dA*d[5mC]*dT*dG*dT*dT*kG*kG*k[5mC]; antisense) [compound 799550]” here?
Answer: Its value is 50%.

Question: For “799551 (kT*kT*kA*d[5mC]*dA*dG*d[5mC]*dT*d[5mC]*d[5mC]*dT*dA*d[5mC]*kT*kG*kT; antisense) [compound 799551]”, which “% Inhibition” value is on record?
Answer: Its value is 12%.

Question: For “799552 (kA*kG*kG*dG*dA*dA*d[5mC]*dA*dA*dT*dT*dA*d[5mC]*kA*kG*k[5mC]; antisense) [compound 799552]”, which “% Inhibition” value is on record?
Answer: Its value is 58%.

Question: Which “% Inhibition” value does the source give for “799553 (k[5mC]*k[5mC]*k[5mC]*d[5mC]*dG*d[5mC]*dT*dA*dG*dG*dG*dA*dA*k[5mC]*kA*kA; antisense) [compound 799553]” here?
Answer: The value was 46%.

same assay, conditions: Hep3B cells, electroporation, 10,000 nM antisense oligonucleotide, approximately 24 hours, RTS5062, relative to untreated control cells

Question: Which “% inhibition of SMAD7 mRNA expression” value does the source give for “799518 (antisense kA*k[5mC]*kT*dT*dA*dA*dG*dT*dA*dG*dA*dG*d[5mC]*kA*kA*kA) [compound 799518]” here?
Answer: Its value is 38%.

Question: Which “% inhibition of SMAD7 mRNA expression” value does the source give for “799519 (antisense kA*kA*k[5mC]*dT*dT*dA*dA*dG*dT*dA*dG*dA*dG*k[5mC]*kA*kA) [compound 799519]” here?
Answer: Its value is 44%.

Question: Which “% inhibition of SMAD7 mRNA expression” value does the source give for “799520 (antisense kG*kA*kT*dT*dG*dA*dT*dG*dT*dT*dG*dG*dG*k[5mC]*kT*kG) [compound 799520]” here?
Answer: The value was 51%.

Question: How did the “% inhibition of SMAD7 mRNA expression” value turn out when “799521 (antisense kT*kA*kA*dA*dG*dA*d[5mC]*dA*dG*dG*dT*dT*dT*k[5mC]*k[5mC]*k[5mC]) [compound 799521]” was run?
Answer: Its value is 57%.

Question: With “799522 (antisense kT*kT*kT*dA*dA*dA*dG*dA*d[5mC]*dA*dG*dG*dT*kT*kT*k[5mC]) [compound 799522]” as the substance, how does the “% inhibition of SMAD7 mRNA expression” value read?
Answer: The value was 32%.

Question: “799523 (antisense kG*kG*k[5mC]*dA*dG*dA*dA*dG*dG*d[5mC]*dT*d[5mC]*dT*k[5mC]*kT*k[5mC]) [compound 799523]” was tested. Which “% inhibition of SMAD7 mRNA expression” value did it give?
Answer: The value was 28%.

Question: For “799535 (kA*kA*k[5mC]*dT*dT*dA*dA*dG*dG*d[5mC]*dA*dT*dA*kT*kA*kA; antisense) [compound 799535]”, which “% inhibition of SMAD7 mRNA expression” value is on record?
Answer: The value was 42%.

Question: “799536 (kA*k[5mC]*k[5mC]*dG*dA*dT*dG*d[5mC]*dA*dT*d[5mC]*d[5mC]*dA*kA*k[5mC]*kT; antisense) [compound 799536]” was tested. Which “% inhibition of SMAD7 mRNA expression” value did it give?
Answer: The value was 50%.

Question: With “799537 (kG*kG*kG*d[5mC]*dA*d[5mC]*d[5mC]*dA*d[5mC]*dA*dA*dT*dG*kT*k[5mC]*kA; antisense) [compound 799537]” as the substance, how does the “% inhibition of SMAD7 mRNA expression” value read?
Answer: Its value is 3%.

Question: How did the “% inhibition of SMAD7 mRNA expression” value turn out when “799538 (kT*kG*k[5mC]*dA*dG*dG*dA*dT*dG*dA*dG*dG*dA*kG*k[5mC]*kT; antisense) [compound 799538]” was run?
Answer: The value was 29%.

Question: Which “% inhibition of SMAD7 mRNA expression” value does the source give for “799539 (k[5mC]*k[5mC]*k[5mC]*dG*dT*d[5mC]*d[5mC]*dA*d[5mC]*dG*dG*dA*dA*k[5mC]*kG*kG; antisense) [compound 799539]” here?
Answer: Its value is 41%.

Question: How did the “% inhibition of SMAD7 mRNA expression” value turn out when “799541 (kT*kT*kA*dA*dT*dG*dA*d[5mC]*dA*d[5mC]*d[5mC]*dA*dA*kA*kG*kT; antisense) [compound 799541]” was run?
Answer: The value was 55%.

Question: Which “% inhibition of SMAD7 mRNA expression” value does the source give for “799542 (kG*kT*kT*dA*dA*dT*dG*dA*d[5mC]*dA*d[5mC]*d[5mC]*dA*kA*kA*kG; antisense) [compound 799542]” here?
Answer: Its value is 30%.

Question: For “799554 (kT*kA*k[5mC]*d[5mC]*dT*dG*dT*dG*dA*dG*d[5mC]*d[5mC]*d[5mC]*kT*kG*kA; antisense) [compound 799554]”, which “% inhibition of SMAD7 mRNA expression” value is on record?
Answer: The value was 0%.

Question: “799555 (kT*kA*k[5mC]*d[5mC]*d[5mC]*d[5mC]*dG*dT*dG*d[5mC]*d[5mC]*dT*dG*kT*k[5mC]*kA; antisense) [compound 799555]” was tested. Which “% inhibition of SMAD7 mRNA expression” value did it give?
Answer: The value was 51%.

Question: How did the “% inhibition of SMAD7 mRNA expression” value turn out when “799557 (kA*kG*k[5mC]*d[5mC]*dA*dG*dT*dT*d[5mC]*dT*dT*dA*dG*kA*kA*kA; antisense) [compound 799557]” was run?
Answer: Its value is 28%.

Question: For “799558 (k[5mC]*kT*kT*d[5mC]*dT*dA*dT*dT*d[5mC]*dG*dA*dG*d[5mC]*kT*kG*k[5mC]; antisense) [compound 799558]”, which “% inhibition of SMAD7 mRNA expression” value is on record?
Answer: Its value is 47%.

Question: With “799559 (kA*kG*k[5mC]*dT*dT*d[5mC]*dT*dA*dT*dT*d[5mC]*dG*dA*kG*k[5mC]*kT; antisense) [compound 799559]” as the substance, how does the “% inhibition of SMAD7 mRNA expression” value read?
Answer: The value was 37%.

Question: Which “% inhibition of SMAD7 mRNA expression” value does the source give for “799560 (kG*kG*k[5mC]*dA*d[5mC]*dA*dG*d[5mC]*dT*dT*d[5mC]*dT*dA*kT*kT*k[5mC]; antisense) [compound 799560]” here?
Answer: Its value is 18%.

Question: “799561 (kG*kG*kA*dA*dT*dG*dA*dA*d[5mC]*dT*dT*dT*dG*k[5mC]*k[5mC]*kT; antisense) [compound 799561]” was tested. Which “% inhibition of SMAD7 mRNA expression” value did it give?
Answer: The value was 45%.
